How the values were obtained:
Assay type in all cases: cell-based
[1] = tested on: Pseudonas aeruginosa (NBRC12689); assay: Study of germicidal activity of agents in the presence of proteins; set-up: key to growth of the microorganism P.a: a case where growth of the microorganism on the surface of the medium was recognized is shown by +; a case where growth of the microorganism on the surface of the medium was not recognized is shown by −; conditions: for growth of the microorganism P.a: agent 50 μg/mL
Method: (§1) Didecyldimethylammonium adipate (DDAA), N-bis(3-aminopropyl)dodecylamine (TAA) and benzalkonium chloride were respectively prepared such that a concentration thereof is 1 w/w %.
(§2) GOT solution: GOT Substrate-Enzyme solution and GOT•L2α-KG solution which were components of L type Wako GOT•J2 kit (produced by Wako Pure Chemical Industries, Ltd.) were prepared with distilled water so as to become a 0.1 w/w % aqueous solution.
(§3) GPT solution: GOT Substrate-Enzyme solution and GOT•L2α-KG solution which were components of L type Wako GPT•J2 kit (produced by Wako Pure Chemical Industries, Ltd.) were prepared with distilled water so as to become a 0.1 w/w % aqueous solution.
(§4) Serum: Control Serum II Wako (produced by Wako Pure Chemical Industries, Ltd.) was prepared with distilled water so as to become a 0.1 w/w % aqueous solution.
(§5) i) The individual test microorganism, which was preliminarily cultured in bouillon medium in advance until 1×10^8 microorganisms/mL, were diluted with sterilized physiological saline for 100 times (to 1×10^6 microorganisms/mL) to obtain a solution of test microorganisms. ii) Into a 20 mL test tube made of glass which was preliminarily sterilized by dry-heat sterilization, the agent aqueous solution, the reagent solution and the solution of test microorganisms as prepared in the above described i) were added such that a final concentration of the agent become 50 μg/mL, a final concentration of the reagent become 100 μg/mL, and the number of test microorganisms become 1×10^5 microorganisms/mL, respectively, when a total volume thereof is prepared to be 10 mL. And then, the tube was sufficiently stirred. iii) After a lapse of predetermined times (5 min, 10 min, and 15 min), the solution as obtained in the above described ii) was smeared with a platinum loop on the surface of the nutrient agar plate medium preliminarily having been prepared, and the medium was cultured at 35° C.±2° C. for 24 hours. iv) After the cultivation, confirming the presence or not of the growth of the microorganisms on the surface of the medium was conducted. (3) Result
(§6) In Table 3, a case where growth of the microorganism on the surface of the medium was recognized is shown by +, and a case where growth of the microorganism on the surface of the medium was not recognized is shown by −, respectively.

[2] = tested on: Bacillus subtilis (NBRC13719); assay: as above; set-up: key: a case where growth of the microorganism on the surface of the medium was recognized is shown by +; a case where growth of the microorganism on the surface of the medium was not recognized is shown by −; conditions: agent 50 μg/mL
Method: as §1, §2, §3, §4, §5, §6

[3] = tested on: Escherichia coli (NBRC3972); assay: as above; set-up: key: a case where growth of the microorganism on the surface of the medium was recognized is shown by +; a case where growth of the microorganism on the surface of the medium was not recognized is shown by −; conditions: agent 50 μg/mL
Method: as §1, §2, §3, §4, §5, §6

[4] = tested on: Bacillus subtilis (NBRC13719); assay: Study of antimicrobial activity (MIC, agar plate medium)
Method: (§7) In a sterilized petri dish having a diameter of 90 mm, an aqueous solution which was obtained by diluting each of agents with distilled water such that a concentration of the agent become each predetermined concentrations when the solution is prepared to a total volume of 20 mL, and then sterilized water was added into the petri dish such that a total volume of sterilized water and the agent aqueous solution become 2 mL. Further, 18 mL of nutrient agar medium, which was sterilized with high pressure steam and preserved at 50° C.±2° C., was added into the petri dish, and it was solidified to obtain an agar plate medium.
(§8) The individual test microorganism, which was preliminarily cultured in bouillon medium in advance until 1×10^8 microorganisms/mL, was diluted with sterilized physiological saline for 100 times (to 1×10^6 microorganisms/mL). Next, prepared solution of the test microorganism was smeared with a platinum loop on the surface of the agar plate medium prepared in (2), and the medium was cultured at 35° C.±2° C., for 24 hours.
(§9) After the cultivation, confirming the presence or not of growth of the microorganism on the surface of the medium was conducted, a minimum concentration of the agent, where growth of the microorganisms cannot be recognized, was determined as the minimum inhibitory concentration (MIC, μg/mL) of the agent.

[5] = tested on: Trichoderma viride (NBRC31831); assay: as above
Method: as §7, §8, §9

[6] = tested on: Aspergillus niger (NBRC6341); assay: as above
Method: as §7, §8, §9

[7] = tested on: Cladosporium cladosporioides (NBRC6348); assay: as above
Method: as §7, §8, §9

[8] = tested on: Penicillium citrinum (NBRC6352); assay: as above
Method: as §7, §8, §9

[9] = tested on: Chaetomium globosum (NBRC6347); assay: as above
Method: as §7, §8, §9

[10] = tested on: Pseudonas aeruginosa (NBRC12689); assay: as above
Method: as §7, §8, §9

[11] = tested on: Staphylococcus aureus (NBRC12732); assay: as above
Method: as §7, §8, §9

[12] = tested on: Escherichia coli (NBRC3972); assay: as above
Method: as §7, §8, §9

[13] = tested on: Staphylococcus aureus (NBRC12732); assay: Study of germicidal activity of agents in the presence of proteins; set-up: key to growth of the microorganism S.a: a case where growth of the microorganism on the surface of the medium was recognized is shown by +; a case where growth of the microorganism on the surface of the medium was not recognized is shown by −; conditions: for growth of the microorganism S.a: agent 50 μg/mL
Method: as §1, §2, §3, §4, §5, §6

[14] = data are not shown, effect does not change in the presence of protein

CCCCCCCCCCCCN(CCCN)CCCN [TAA, N-bis(3-aminopropyl)dodecylamine]
growth of the microorganism P.a ([1]; GOT, 5 min): −
growth of the microorganism P.a ([1]; GOT, 10 min): −
growth of the microorganism P.a ([1]; GOT, 15 min): −
growth of the microorganism P.a ([1]; GPT, 5 min): −
growth of the microorganism P.a ([1]; GPT, 10 min): −
growth of the microorganism P.a ([1]; GPT, 15 min): −
growth of the microorganism P.a ([1]; Serum, 5 min): −
growth of the microorganism P.a ([1]; Serum, 10 min): −
growth of the microorganism P.a ([1]; Serum, 15 min): −
germicidal activity to Pseudonas aeruginous [1, 14]: high germicidal activity
growth of the microorganism B.s ([2]; GOT, 5 min): +
growth of the microorganism B.s ([2]; GOT, 10 min): +
growth of the microorganism B.s ([2]; GOT, 15 min): +
growth of the microorganism B.s ([2]; GPT, 5 min): +
growth of the microorganism B.s ([2]; GPT, 10 min): +
growth of the microorganism B.s ([2]; GPT, 15 min): +
growth of the microorganism B.s ([2]; Serum, 5 min): +
growth of the microorganism B.s ([2]; Serum, 10 min): +
growth of the microorganism B.s ([2]; Serum, 15 min): +
growth of the microorganism E.c ([3]; GOT, 5 min): +
growth of the microorganism E.c ([3]; GOT, 10 min): +
growth of the microorganism E.c ([3]; GOT, 15 min): +
growth of the microorganism E.c ([3]; GPT, 5 min): +
growth of the microorganism E.c ([3]; GPT, 10 min): +
growth of the microorganism E.c ([3]; GPT, 15 min): +
growth of the microorganism E.c ([3]; Serum, 5 min): +
growth of the microorganism E.c ([3]; Serum, 10 min): +
growth of the microorganism E.c ([3]; Serum, 15 min): +
Minimum Inhibitory Concentration B.s [4]: 3.125 µg/mL
Minimum Inhibitory Concentration T.v [5]: 50 µg/mL
Minimum Inhibitory Concentration A.n [6]: 200 µg/mL
Minimum Inhibitory Concentration Cl.cl [7]: 25 µg/mL
Minimum Inhibitory Concentration P.c [8]: 200 µg/mL
Minimum Inhibitory Concentration C.g [9]: 100 µg/mL
Minimum Inhibitory Concentration P.a [10]: 100 µg/mL
Minimum Inhibitory Concentration S.a [11]: 3.125 µg/mL
Minimum Inhibitory Concentration E.c [12]: 50 µg/mL
growth of the microorganism S.a ([13]; GOT, 5 min): −
growth of the microorganism S.a ([13]; GOT, 10 min): −
growth of the microorganism S.a ([13]; GOT, 15 min): −
growth of the microorganism S.a ([13]; GPT, 5 min): −
growth of the microorganism S.a ([13]; GPT, 10 min): −
growth of the microorganism S.a ([13]; GPT, 15 min): −
growth of the microorganism S.a ([13]; Serum, 5 min): −
growth of the microorganism S.a ([13]; Serum, 10 min): −
growth of the microorganism S.a ([13]; Serum, 15 min): −
germicidal activity to Staphylococcus aureus [13, 14]: high germicidal activity

Didecyldimethylammonium adipate [DDAA]
growth of the microorganism P.a ([1]; GOT, 5 min): −
growth of the microorganism P.a ([1]; GOT, 10 min): −
growth of the microorganism P.a ([1]; GOT, 15 min): −
growth of the microorganism P.a ([1]; GPT, 5 min): −
growth of the microorganism P.a ([1]; GPT, 10 min): −
growth of the microorganism P.a ([1]; GPT, 15 min): −
growth of the microorganism P.a ([1]; Serum, 5 min): −
growth of the microorganism P.a ([1]; Serum, 10 min): −
growth of the microorganism P.a ([1]; Serum, 15 min): −
growth of the microorganism B.s ([2]; GOT, 5 min): +
growth of the microorganism B.s ([2]; GOT, 10 min): +
growth of the microorganism B.s ([2]; GOT, 15 min): +
growth of the microorganism B.s ([2]; GPT, 5 min): +
growth of the microorganism B.s ([2]; GPT, 10 min): +
growth of the microorganism B.s ([2]; GPT, 15 min): +
growth of the microorganism B.s ([2]; Serum, 5 min): +
growth of the microorganism B.s ([2]; Serum, 10 min): +
growth of the microorganism B.s ([2]; Serum, 15 min): +
growth of the microorganism E.c ([3]; GOT, 5 min): +
growth of the microorganism E.c ([3]; GOT, 10 min): +
growth of the microorganism E.c ([3]; GOT, 15 min): +
growth of the microorganism E.c ([3]; GPT, 5 min): +
growth of the microorganism E.c ([3]; GPT, 10 min): +
growth of the microorganism E.c ([3]; GPT, 15 min): +
growth of the microorganism E.c ([3]; Serum, 5 min): +
growth of the microorganism E.c ([3]; Serum, 10 min): +
growth of the microorganism E.c ([3]; Serum, 15 min): +
Minimum Inhibitory Concentration B.s [4]: <1.563 µg/mL
Minimum Inhibitory Concentration T.v [5]: 200 µg/mL
Minimum Inhibitory Concentration A.n [6]: 400 µg/mL
Minimum Inhibitory Concentration Cl.cl [7]: 100 µg/mL
Minimum Inhibitory Concentration P.c [8]: 400 µg/mL
Minimum Inhibitory Concentration C.g [9]: 200 µg/mL
Minimum Inhibitory Concentration P.a [10]: 400 µg/mL
Minimum Inhibitory Concentration S.a [11]: <1.563 µg/mL
Minimum Inhibitory Concentration E.c [12]: 100 µg/mL
growth of the microorganism S.a ([13]; GOT, 5 min): −
growth of the microorganism S.a ([13]; GOT, 10 min): −
growth of the microorganism S.a ([13]; GOT, 15 min): −
growth of the microorganism S.a ([13]; GPT, 5 min): −
growth of the microorganism S.a ([13]; GPT, 10 min): −
growth of the microorganism S.a ([13]; GPT, 15 min): −
growth of the microorganism S.a ([13]; Serum, 5 min): −
growth of the microorganism S.a ([13]; Serum, 10 min): −
growth of the microorganism S.a ([13]; Serum, 15 min): −
